Source: patent US20170050957A1, “4-AMINO-6-(HETEROCYCLIC)PICOLINATES AND 6-AMINO-2-(HETEROCYCLIC)PYRIMIDINE-4-CARBOXYLATES AND THEIR USE AS HERBICIDES” (Dow AgroSciences LLC, priority 2013, published 2017)
Where two headings read alike, the source gives them in different places.

Key:
[1] = tested on: Key Grass and Sedge Weeds as well as Grass Crops; assay: Post-emergent Test II herbicidal activity (Table 16); assay type: in vivo; conditions: post-emergence, 336 h, 14 days after application; for pest or weed control at 35 g/ha: 35 g ai/ha; for pest or weed control at 70 g/ha: 70 g ai/ha; for pest or weed control at 140 g/ha: 140 g ai/ha
Summary of the method: (§1)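 Plants grown in greenhouse (~15 h photoperiod, 23-29 °C day, 22-28 °C night) to first or second true leaf stage, then sprayed post-emergence at 187 L/ha with a high rate and 1/2×, 1/4×, 1/8× and 1/16× dilutions. Injury scored visually after 14 d, 0-100% versus untreated plants.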

[2] = tested on: Key Broadleaf Weed and Crop Species; assay: Post-emergent Test II herbicidal activity (Table 15); assay type: in vivo; conditions: post-emergence, 336 h, 14 d; for pest or weed control at 35 g/ha: 35 g ai/ha; for pest or weed control at 70 g/ha: 70 g ai/ha; for pest or weed control at 140 g/ha: 140 g ai/ha
Summary of the method: as §1

[3] = Cyperus esculentus, yellow nutsedge (Cyperus esculentus), read-out: Visual Growth Reduction (%) 14 Days After Application CYPES
[4] = Echinochloa crus-galli, barnyardgrass (Echinochloa crus-galli), read-out: Visual Growth Reduction (%) 14 Days After Application ECHCG
[5] = Oryza sativa, rice (Oryza sativa), read-out: Visual Growth Reduction (%) 14 Days After Application ORYSA
[6] = Setaria faberi, giant foxtail (Setaria faberi), read-out: Visual Growth Reduction (%) 14 Days After Application SETFA
[7] = Triticum aestivum, wheat, spring (Triticum aestivum), read-out: Visual Growth Reduction (%) 14 Days After Application TRZAS
[8] = Zea mays, maize, corn (Zea mays), read-out: Visual Growth Reduction (%) 14 Days After Application ZEAMX
[9] = Abutilon theophrasti, velvetleaf (Abutilon theophrasti), read-out: Visual Growth Reduction (%) 14 Days After Application, ABUTH
[10] = Amaranthus retroflexus, redroot pigweed (Amaranthus retroflexus), read-out: Visual Growth Reduction (%) 14 Days After Application, AMARE
[11] = Brassica napus, oilseed rape, canola (Brassica napus), read-out: Visual Growth Reduction (%) 14 Days After Application, BRSNN
[12] = Chenopodium album, lambsquarters (Chenopodium album), read-out: Visual Growth Reduction (%) 14 Days After Application, CHEAL
[13] = Euphorbia heterophylla, wild poinsettia (Euphorbia heterophylla), read-out: Visual Growth Reduction (%) 14 Days After Application, EPHHL
[14] = Helianthus annuus, sunflower (Helianthus annuus), read-out: Visual Growth Reduction (%) 14 Days After Application, HELAN

COC(=O)c1nc(-c2cc3sccc3cc2F)c(F)c(N)c1Cl [Compound 3.14]
pest or weed control at 35 g/ha [1, 3]: 0 to 29% | pest or weed control at 70 g/ha [1, 3]: 0 to 29% | pest or weed control at 140 g/ha [1, 3]: 0 to 29% | pest or weed control at 35 g/ha [1, 4]: 0 to 29% | pest or weed control at 70 g/ha [1, 4]: 0 to 29% | pest or weed control at 140 g/ha [1, 4]: 0 to 29% | pest or weed control at 35 g/ha [1, 5]: 0 to 29% | pest or weed control at 70 g/ha [1, 5]: 0 to 29% | pest or weed control at 140 g/ha [1, 5]: 0 to 29% | pest or weed control at 35 g/ha [1, 6]: 0 to 29% | pest or weed control at 70 g/ha [1, 6]: 0 to 29% | pest or weed control at 140 g/ha [1, 6]: 0 to 29% | pest or weed control at 35 g/ha [1, 7]: 0 to 29% | pest or weed control at 70 g/ha [1, 7]: 0 to 29% | pest or weed control at 140 g/ha [1, 7]: 0 to 29% | pest or weed control at 35 g/ha [1, 8]: 0 to 29% | pest or weed control at 70 g/ha [1, 8]: 30 to 44% | pest or weed control at 140 g/ha [1, 8]: 60 to 74% | pest or weed control at 35 g/ha [2, 9]: 0 to 29% | pest or weed control at 70 g/ha [2, 9]: 0 to 29% | pest or weed control at 140 g/ha [2, 9]: 0 to 29% | pest or weed control at 35 g/ha [2, 10]: 85 to 94% | pest or weed control at 70 g/ha [2, 10]: 95 to 100% | pest or weed control at 140 g/ha [2, 10]: 95 to 100% | pest or weed control at 35 g/ha [2, 11]: 0 to 29% | pest or weed control at 70 g/ha [2, 11]: 0 to 29% | pest or weed control at 140 g/ha [2, 11]: 0 to 29% | pest or weed control at 35 g/ha [2, 12]: 85 to 94% | pest or weed control at 70 g/ha [2, 12]: 85 to 94% | pest or weed control at 140 g/ha [2, 12]: 95 to 100% | pest or weed control at 35 g/ha [2, 13]: 30 to 44% | pest or weed control at 70 g/ha [2, 13]: 30 to 44% | pest or weed control at 140 g/ha [2, 13]: 60 to 74% | pest or weed control at 35 g/ha [2, 14]: 85 to 94% | pest or weed control at 70 g/ha [2, 14]: 85 to 94% | pest or weed control at 140 g/ha [2, 14]: 95 to 100% | melting point: 112 °C
